Test results: PubChem BioAssay (NCI)
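Five concentrations, 48 hours, 96-well plates. GI50 marks 50% less growth. TGI marks complete inhibition of growth.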

Assays:
Assay in all cases: DTP human tumour cell line panel, 48 h
[1] = system: CAKI-1 renal
[2] = system: SNB-75 CNS
[3] = system: LOX IMVI melanoma
[4] = system: TK-10 renal
[5] = system: SF-268 CNS
[6] = system: RPMI-8226 leukemia
[7] = system: HCT-15 colon
[8] = system: NCI-H522 lung
[9] = system: COLO 205 colon
[10] = system: IGROV1 ovarian
[11] = system: CCRF-CEM leukemia
[12] = system: HCC-2998 colon
[13] = system: SNB-19 CNS
[14] = system: MALME-3M melanoma
[15] = system: MDA-MB-231 breast
[16] = system: SF-539 CNS
[17] = system: ACHN renal
[18] = system: OVCAR-4 ovarian
[19] = system: MOLT-4 leukemia
[20] = system: SN12C renal
[21] = system: MDA-MB-435
[22] = system: SR leukemia
[23] = system: SW-620 colon
[24] = system: NCI/ADR-RES ovarian
[25] = system: NCI-H23 lung
[26] = system: U251 CNS
[27] = system: SF-295 CNS
[28] = system: UO-31 renal
[29] = system: OVCAR-5 ovarian
[30] = system: NCI-H460 lung
[31] = system: SK-OV-3 ovarian
[32] = system: OVCAR-8 ovarian
[33] = system: BT-549 breast
[34] = system: HOP-62 NSCLC
[35] = system: DU-145 prostate
[36] = system: HS 578T breast
[37] = system: OVCAR-3 ovarian
[38] = system: HT29 colon
[39] = system: KM12 colon
[40] = system: EKVX NSCLC
[41] = system: K-562 leukemia
[42] = system: M14 melanoma
[43] = system: MCF7 breast
[44] = system: UACC-257 melanoma
[45] = system: HL-60(TB) leukemia
[46] = system: HOP-92 NSCLC
[47] = system: 786-0 renal
[48] = system: SK-MEL-5 melanoma
[49] = system: T-47D breast
[50] = system: SK-MEL-28 melanoma
[51] = system: A549 NSCLC
[52] = system: NCI-H226 lung
[53] = system: UACC-62 melanoma
[54] = system: RXF 393 renal
[55] = system: SK-MEL-2 melanoma
[56] = system: PC-3 prostate
[57] = system: HCT-116 colon
[58] = system: A498 renal

O=S(=O)(Nc1cc(F)cc(F)c1)c1ccc(-c2cnc(C3CC3)o2)cc1
GI50 [1]: 1.19 µM | TGI [1]: 38.4 µM | GI50 [2]: 1.05 µM | TGI [2]: 3.98 µM | GI50 [3]: 4.34 µM | TGI [3]: > 100 µM | GI50 [4]: 8.65 µM | TGI [4]: 68.7 µM | GI50 [5]: 6.73 µM | TGI [5]: 48.8 µM | GI50 [6]: 3.44 µM | TGI [6]: 66.2 µM | GI50 [7]: 0.702 µM | TGI [7]: 47.9 µM | GI50 [8]: 2.03 µM | TGI [8]: 40.4 µM | GI50 [9]: 2.08 µM | TGI [9]: 12.3 µM | GI50 [10]: 2.01 µM | TGI [10]: > 100 µM | GI50 [11]: 2.44 µM | TGI [11]: > 100 µM | GI50 [12]: 5.62 µM | TGI [12]: 44.2 µM | GI50 [13]: 3.73 µM | TGI [13]: > 100 µM | GI50 [14]: 2.98 µM | TGI [14]: 70.1 µM | GI50 [15]: 6.46 µM | TGI [15]: 41.7 µM | GI50 [16]: 2.52 µM | TGI [16]: 14.6 µM | GI50 [17]: 4.92 µM | TGI [17]: > 100 µM | GI50 [18]: 5.93 µM | TGI [18]: 90.9 µM | GI50 [19]: 3.73 µM | TGI [19]: > 100 µM | GI50 [20]: 4.87 µM | TGI [20]: 59.6 µM | GI50 [21]: 0.305 µM | TGI [21]: 2.09 µM | GI50 [22]: 0.513 µM | TGI [22]: > 100 µM | GI50 [23]: 1.12 µM | TGI [23]: > 100 µM | GI50 [24]: 1.7 µM | TGI [24]: 68.1 µM | GI50 [25]: 4.55 µM | TGI [25]: 77.1 µM | GI50 [26]: 3.28 µM | TGI [26]: > 100 µM | GI50 [27]: 1.29 µM | TGI [27]: 11.7 µM | GI50 [28]: 4.69 µM | TGI [28]: > 100 µM | GI50 [29]: 6.12 µM | TGI [29]: > 100 µM | GI50 [30]: 2.64 µM | TGI [30]: 21.4 µM | GI50 [31]: 3.8 µM | TGI [31]: 42 µM | GI50 [32]: 4.31 µM | TGI [32]: > 100 µM | GI50 [33]: 3.33 µM | TGI [33]: 46.7 µM | GI50 [34]: 2.6 µM | TGI [34]: 33.6 µM | GI50 [35]: 4.11 µM | TGI [35]: > 100 µM | GI50 [36]: 1.83 µM | TGI [36]: 8.6 µM | GI50 [37]: 1.57 µM | TGI [37]: 15.6 µM | GI50 [38]: 1.76 µM | TGI [38]: 12.9 µM | GI50 [39]: 0.869 µM | TGI [39]: 32 µM | GI50 [40]: 5.31 µM | TGI [40]: > 100 µM | GI50 [41]: 0.582 µM | TGI [41]: > 100 µM | GI50 [42]: 1.85 µM | TGI [42]: > 100 µM | GI50 [43]: 1.45 µM | TGI [43]: > 100 µM | GI50 [44]: 12.3 µM | TGI [44]: 52.9 µM | GI50 [45]: 2.12 µM | TGI [45]: 13.8 µM | GI50 [46]: 1.68 µM | TGI [46]: 11.4 µM | GI50 [47]: 5.05 µM | TGI [47]: > 100 µM | GI50 [48]: 3.27 µM | TGI [48]: 13.1 µM | GI50 [49]: 3.08 µM | TGI [49]: 79.9 µM | GI50 [50]: 13.3 µM | TGI [50]: > 100 µM | GI50 [51]: 3.8 µM | TGI [51]: > 100 µM | GI50 [52]: 3.88 µM | TGI [52]: 53 µM | GI50 [53]: 0.94 µM | TGI [53]: 20 µM | GI50 [54]: 1.66 µM | TGI [54]: 6.79 µM | GI50 [55]: 4.51 µM | TGI [55]: 41.6 µM | GI50 [56]: 1.99 µM | TGI [56]: > 100 µM | GI50 [57]: 3.04 µM | TGI [57]: > 100 µM

CC(=O)/C(=C\c1c(-c2ccccc2)[nH]c2ccccc12)S(C)(=O)=O
GI50 [58]: 3.88 µM | TGI [58]: > 54.8 µM | GI50 [1]: 5.62 µM | TGI [1]: > 100 µM | GI50 [2]: 1.45 µM | TGI [2]: 5.2 µM | GI50 [3]: 3.36 µM | TGI [3]: > 66.3 µM | GI50 [4]: 8.21 µM | TGI [4]: > 100 µM | GI50 [5]: 4.14 µM | TGI [5]: > 93.9 µM | GI50 [6]: 2.95 µM | TGI [6]: 21.9 µM | GI50 [7]: 1.93 µM | TGI [7]: > 100 µM | GI50 [8]: 3.27 µM | TGI [8]: > 25.7 µM | GI50 [9]: 2.7 µM | TGI [9]: 13.5 µM | GI50 [10]: 6.88 µM | TGI [10]: > 54.9 µM | GI50 [11]: 4.74 µM | TGI [11]: > 100 µM | GI50 [12]: 6.61 µM | TGI [12]: 33.9 µM | GI50 [13]: 3.3 µM | TGI [13]: > 58.7 µM | GI50 [14]: 4.72 µM | TGI [14]: > 100 µM | GI50 [15]: 4.82 µM | TGI [15]: > 73.9 µM | GI50 [16]: 1.89 µM | TGI [16]: 4.66 µM | GI50 [17]: 5.64 µM | TGI [17]: > 100 µM | GI50 [18]: 3.71 µM | TGI [18]: > 100 µM | GI50 [19]: 4.24 µM | TGI [19]: > 100 µM | GI50 [20]: 6.06 µM | TGI [20]: > 100 µM | GI50 [21]: 0.313 µM | TGI [21]: 1.97 µM | GI50 [23]: 2.08 µM | TGI [23]: > 100 µM | GI50 [24]: 1.8 µM | TGI [24]: 8.97 µM | GI50 [25]: 4 µM | TGI [25]: > 100 µM | GI50 [26]: 2.79 µM | TGI [26]: > 63 µM | GI50 [27]: 3.85 µM | TGI [27]: > 61.4 µM | GI50 [28]: 5.3 µM | TGI [28]: > 100 µM | GI50 [29]: 13.9 µM | TGI [29]: > 100 µM | GI50 [30]: 2.78 µM | TGI [30]: 10.7 µM | GI50 [31]: 3.96 µM | TGI [31]: > 32.5 µM | GI50 [32]: 5.09 µM | TGI [32]: > 100 µM | GI50 [33]: 2.77 µM | TGI [33]: > 100 µM | GI50 [34]: 7.95 µM | TGI [34]: > 43.5 µM | GI50 [35]: 3.47 µM | TGI [35]: 15.5 µM | GI50 [36]: 1.55 µM | TGI [36]: 4.88 µM | GI50 [37]: 2.33 µM | TGI [37]: 5.35 µM | GI50 [38]: 1.6 µM | TGI [38]: > 40.1 µM | GI50 [39]: 2.42 µM | TGI [39]: 19.2 µM | GI50 [40]: 6.34 µM | TGI [40]: > 100 µM | GI50 [41]: 0.671 µM | TGI [41]: > 100 µM | GI50 [42]: 1.64 µM | TGI [42]: 5.58 µM | GI50 [43]: 2.66 µM | TGI [43]: > 100 µM | GI50 [44]: 24.1 µM | TGI [44]: > 100 µM | GI50 [45]: 3.51 µM | TGI [45]: 20.9 µM | GI50 [46]: 3.11 µM | TGI [46]: > 75 µM | GI50 [47]: 3.44 µM | TGI [47]: > 35.8 µM | GI50 [48]: 1.87 µM | TGI [48]: > 43 µM | GI50 [49]: 2.58 µM | TGI [49]: 26 µM | GI50 [50]: 3.34 µM | TGI [50]: > 100 µM | GI50 [51]: 7.14 µM | TGI [51]: > 100 µM | GI50 [52]: 13 µM | TGI [52]: > 100 µM | GI50 [53]: 3.17 µM | TGI [53]: > 100 µM | GI50 [54]: 2.56 µM | TGI [54]: 8.54 µM | GI50 [55]: 5.19 µM | TGI [55]: > 24.2 µM | GI50 [56]: 4.46 µM | TGI [56]: > 100 µM | GI50 [57]: 2.86 µM | TGI [57]: > 100 µM
